Values of other authors in US11807631B2, “Herboxidiene derivatives and uses thereof” (Purdue Research Foundation, priority 2017, dated 2023).

Test system: human normal fibroblast cell line, W1-38

COC(C(C)O)C(C)C1OC1(C)CC(C)/C=C/C=C(\C)C1OC(CC(=O)O)CCC1C (stereo not shown) [Herboxidiene/GEX1A]
cell cycle arrest: induces both G1 and G2/M cell cycle arrest
